One assay deals with JH2 domain of human Tyk2 (Homo sapiens (Human), UniProt P29597). Put plainly: JH2 Biochemical Assay (TR-FRET probe displacement). Type of assay: binding. The settings on record: TR-FRET probe displacement, JH2 domain of human Tyk2. On the technique in general: Time-resolved FRET reads energy transfer from a long-lived donor to a nearby acceptor.
The target in a further assay is Tyk2 (Homo sapiens (Human), UniProt P29597). The assay can be described thus: pSTAT4 Cell Assay (MSD, NK92 cells). Type of assay: cell-based. The settings on record: MSD.
Sequence of Tyk2 (P29597 whole entry): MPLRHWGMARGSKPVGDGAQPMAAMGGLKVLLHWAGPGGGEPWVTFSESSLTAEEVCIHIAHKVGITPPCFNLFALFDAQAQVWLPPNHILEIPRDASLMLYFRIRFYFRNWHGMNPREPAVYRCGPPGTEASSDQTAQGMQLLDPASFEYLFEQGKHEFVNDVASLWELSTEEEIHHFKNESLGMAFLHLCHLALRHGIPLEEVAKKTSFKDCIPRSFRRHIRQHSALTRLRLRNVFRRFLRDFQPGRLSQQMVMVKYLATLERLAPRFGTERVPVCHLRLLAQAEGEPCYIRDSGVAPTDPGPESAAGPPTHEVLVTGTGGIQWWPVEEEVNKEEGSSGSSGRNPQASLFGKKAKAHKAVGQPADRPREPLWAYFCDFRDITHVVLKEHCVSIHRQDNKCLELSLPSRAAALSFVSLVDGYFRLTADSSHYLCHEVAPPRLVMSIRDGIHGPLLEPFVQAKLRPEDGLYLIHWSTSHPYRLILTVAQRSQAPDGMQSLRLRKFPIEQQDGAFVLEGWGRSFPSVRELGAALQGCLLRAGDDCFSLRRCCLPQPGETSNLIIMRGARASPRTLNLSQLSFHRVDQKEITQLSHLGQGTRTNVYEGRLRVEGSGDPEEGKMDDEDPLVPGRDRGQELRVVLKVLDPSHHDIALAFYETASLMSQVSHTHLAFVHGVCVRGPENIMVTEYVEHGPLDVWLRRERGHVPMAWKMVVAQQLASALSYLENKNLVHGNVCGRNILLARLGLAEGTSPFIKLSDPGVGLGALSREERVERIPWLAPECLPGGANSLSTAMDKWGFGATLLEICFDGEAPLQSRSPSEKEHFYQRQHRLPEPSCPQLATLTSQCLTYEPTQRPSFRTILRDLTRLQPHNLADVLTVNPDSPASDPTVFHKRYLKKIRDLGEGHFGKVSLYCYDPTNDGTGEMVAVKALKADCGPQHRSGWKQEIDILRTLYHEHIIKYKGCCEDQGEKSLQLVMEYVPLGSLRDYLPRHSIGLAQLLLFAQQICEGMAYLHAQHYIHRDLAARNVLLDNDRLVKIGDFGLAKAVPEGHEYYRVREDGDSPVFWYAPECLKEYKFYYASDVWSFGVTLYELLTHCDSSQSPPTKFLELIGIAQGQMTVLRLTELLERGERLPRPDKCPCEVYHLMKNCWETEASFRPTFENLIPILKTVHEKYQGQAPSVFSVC

Broadly, the IC50 is the concentration at which inhibition is half-maximal.

Sequence of JH2 domain of human Tyk2 (P29597 575-876): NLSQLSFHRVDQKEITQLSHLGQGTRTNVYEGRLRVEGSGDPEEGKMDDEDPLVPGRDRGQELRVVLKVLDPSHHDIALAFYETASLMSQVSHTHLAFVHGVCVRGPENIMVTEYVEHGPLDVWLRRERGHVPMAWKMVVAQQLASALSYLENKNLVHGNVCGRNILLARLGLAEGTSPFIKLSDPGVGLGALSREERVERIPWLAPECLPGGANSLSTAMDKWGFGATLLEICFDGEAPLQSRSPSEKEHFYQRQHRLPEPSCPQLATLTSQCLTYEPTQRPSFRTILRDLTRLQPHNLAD

As for `CC(=O)Nc1cc(Nc2cc(C)nc(C(C)(F)F)n2)c(-c2ccnc(C)n2)cn1` [Example 174, N-(4-((2-(1,1-difluoroethyl)-6-methylpyrimidin-4-yl)amino)-5-(2-methylpyrimidin-4-yl)pyridin-2-yl)acetamide], the IC50 on JH2 domain of human Tyk2 and at Tyk2 was at most 10 nM each time.

`CC(=O)Nc1cc(Nc2cc(C)nc(C(C)(C)F)n2)c(-c2ccnc(C)n2)cn1` [Example 176, N-(4-((2-(2-fluoropropan-2-yl)-6-methylpyrimidin-4-yl)amino)-5-(2-methylpyrimidin-4-yl)pyridin-2-yl)acetamide]: the 50% inhibitory concentration (IC50) at JH2 domain of human Tyk2 and against Tyk2 was at most 10 nM each time.

As to `COc1nccc(-c2cnc(NC(C)=O)cc2Nc2cccc(C(C)(F)F)n2)n1` [Example 177, N-(4-((6-(1,1-difluoroethyl)pyridin-2-yl)amino)-5-(2-methoxypyrimidin-4-yl)pyridin-2-yl)acetamide], the IC50 on JH2 domain of human Tyk2 and against Tyk2 was at most 10 nM each time.

On to `COc1nccc(-c2cnc(NC(C)=O)cc2Nc2ccnc(C(C)(F)F)n2)n1` [Example 178, N-(4-((2-(1,1-difluoroethyl)pyrimidin-4-yl)amino)-5-(2-methoxypyrimidin-4-yl)pyridin-2-yl)acetamide], for which the IC50 at JH2 domain of human Tyk2 and on Tyk2 was at most 10 nM in each case.

Turning to `COc1nccc(-c2cnc(NC(C)=O)cc2Nc2cc(C)nc(C(C)(F)F)n2)n1` [Example 179, N-(4-((2-(1,1-difluoroethyl)-6-methylpyrimidin-4-yl)amino)-5-(2-methoxypyrimidin-4-yl)pyridin-2-yl)acetamide], the IC50 on JH2 domain of human Tyk2 and against Tyk2 was at most 10 nM throughout.

Regarding `COc1nccc(-c2cnc(NC(C)=O)cc2Nc2ccnc(C(C)(C)F)n2)n1` [Example 180, N-(4-((2-(2-fluoropropan-2-yl)pyrimidin-4-yl)amino)-5-(2-methoxypyrimidin-4-yl)pyridin-2-yl)acetamide], the IC50 at JH2 domain of human Tyk2 and against Tyk2 was at most 10 nM each time.

With `COc1nccc(-c2cnc(NC(C)=O)cc2Nc2cc(C)nc(C(C)(C)F)n2)n1` [Example 181, N-(4-((2-(2-fluoropropan-2-yl)-6-methylpyrimidin-4-yl)amino)-5-(2-methoxypyrimidin-4-yl)pyridin-2-yl)acetamide], the half-inhibitory concentration (IC50) on JH2 domain of human Tyk2 and at Tyk2 was at most 10 nM each time.

In the case of `CCc1cc(Nc2cc(NC(C)=O)ncc2-c2ncc(F)cn2)nc(C(C)(F)F)n1` [Example 183, N-(4-((2-(1,1-difluoroethyl)-6-ethylpyrimidin-4-yl)amino)-5-(5-fluoropyrimidin-2-yl)pyridin-2-yl)acetamide], the IC50 at JH2 domain of human Tyk2 is at most 10 nM; at Tyk2, 10 to 100 nM.

As for `CC(=O)Nc1cc(Nc2cc(C(C)C)nc(C(C)(F)F)n2)c(-c2ncc(F)cn2)cn1` [Example 184, N-(4-((2-(1,1-difluoroethyl)-6-isopropylpyrimidin-4-yl)amino)-5-(5-fluoropyrimidin-2-yl)pyridin-2-yl)acetamide], the IC50 on JH2 domain of human Tyk2 is at most 10 nM; against Tyk2, 10 to 100 nM.

As for `CC(=O)Nc1cc(Nc2cccc(C(C)(F)F)n2)c(-c2ncc(F)cn2)cn1` [Example 186, N-(4-((6-(1,1-difluoroethyl)pyridin-2-yl)amino)-5-(5-fluoropyrimidin-2-yl)pyridin-2-yl)acetamide], the IC50 at JH2 domain of human Tyk2 is at most 10 nM; on Tyk2, 10 to 100 nM.

As to `CC(=O)Nc1cc(Nc2ccnc(C(C)(F)F)c2)c(-c2ncc(F)cn2)cn1` [Example 187, N-(4-((2-(1,1-difluoroethyl)pyridin-4-yl)amino)-5-(5-fluoropyrimidin-2-yl)pyridin-2-yl)acetamide], the half-maximal inhibitory concentration (IC50) is 10 to 100 nM on JH2 domain of human Tyk2 and at least 1000 nM against Tyk2.

Take `CC(=O)Nc1cc(Nc2cncc(C(C)(F)F)n2)c(-c2ncc(F)cn2)cn1` [Example 188, N-(4-((6-(1,1-difluoroethyl)pyrazin-2-yl)amino)-5-(5-fluoropyrimidin-2-yl)pyridin-2-yl)acetamide]: the IC50 at JH2 domain of human Tyk2 is at most 10 nM; on Tyk2, 10 to 100 nM.

Consider `CC(=O)Nc1cc(Nc2cncc(C(C)(C)F)n2)c(-c2ncc(F)cn2)cn1` [Example 189, N-(4-((6-(2-fluoropropan-2-yl)pyrazin-2-yl)amino)-5-(5-fluoropyrimidin-2-yl)pyridin-2-yl)acetamide], for which the IC50 at JH2 domain of human Tyk2 and against Tyk2 was 10 to 100 nM each time.

In the case of `CC(=O)Nc1cc(Nc2cc(C)cc(C(C)(F)F)n2)c(-c2ncc(F)cn2)cn1` [Example 190, N-(4-((6-(1,1-difluoroethyl)-4-methylpyridin-2-yl)amino)-5-(5-fluoropyrimidin-2-yl)pyridin-2-yl)acetamide], the IC50 is at most 10 nM on JH2 domain of human Tyk2 and 10 to 100 nM against Tyk2.

Turning to `COc1cc(Nc2cc(NC(C)=O)ncc2-c2ncc(F)cn2)nc(C(C)(F)F)c1` [Example 191, N-(4-((6-(1,1-difluoroethyl)-4-methoxypyridin-2-yl)amino)-5-(5-fluoropyrimidin-2-yl)pyridin-2-yl)acetamide], the IC50 on JH2 domain of human Tyk2 was at most 10 nM; against Tyk2 it was 10 to 100 nM.

Turning to `COc1cc(Nc2cc(NC(C)=O)ncc2-c2ncc(F)cn2)nc(C(C)(F)F)n1` [Example 192, N-(4-((2-(1,1-difluoroethyl)-6-methoxypyrimidin-4-yl)amino)-5-(5-fluoropyrimidin-2-yl)pyridin-2-yl)acetamide], the results for the IC50 at JH2 domain of human Tyk2 and against Tyk2 were at most 10 nM and 10 to 100 nM, respectively.

On to `COc1cc(-c2cnc(NC(C)=O)cc2Nc2ccnc(C(C)(F)F)n2)ncn1` [Example 193, N-(4-((2-(1,1-difluoroethyl)pyrimidin-4-yl)amino)-5-(6-methoxypyrimidin-4-yl)pyridin-2-yl)acetamide], for which the IC50 on JH2 domain of human Tyk2 was at most 10 nM; against Tyk2, 10 to 100 nM.

Turning to `COc1cc(-c2cnc(NC(C)=O)cc2Nc2cc(C)nc(C(C)(F)F)n2)ncn1` [Example 194, N-(4-((2-(1,1-difluoroethyl)-6-methylpyrimidin-4-yl)amino)-5-(6-methoxypyrimidin-4-yl)pyridin-2-yl)acetamide], the IC50 at JH2 domain of human Tyk2 and against Tyk2 was at most 10 nM throughout.

As for `COc1cc(-c2cnc(NC(C)=O)cc2Nc2cc(C)nc(C(C)(C)F)n2)ncn1` [Example 196, N-(4-((2-(2-fluoropropan-2-yl)-6-methylpyrimidin-4-yl)amino)-5-(6-methoxypyrimidin-4-yl)pyridin-2-yl)acetamide], the half-maximal inhibitory concentration (IC50) on JH2 domain of human Tyk2 is at most 10 nM; on Tyk2, 10 to 100 nM.

In the case of `CC(=O)Nc1cc(Nc2cc(C)nc(C(C)(F)F)n2)c(-c2cc(C)ncn2)cn1` [Example 197, N-(4-((2-(1,1-difluoroethyl)-6-methylpyrimidin-4-yl)amino)-5-(6-methylpyrimidin-4-yl)pyridin-2-yl)acetamide], the IC50 at JH2 domain of human Tyk2 and at Tyk2 was at most 10 nM each time.

Take `CC(=O)Nc1cc(Nc2ccnc(C(C)(C)F)n2)c(-c2cc(C)ncn2)cn1` [Example 198, N-(4-((2-(2-fluoropropan-2-yl)pyrimidin-4-yl)amino)-5-(6-methylpyrimidin-4-yl)pyridin-2-yl)acetamide]: the IC50 at JH2 domain of human Tyk2 is at most 10 nM; at Tyk2 it was 10 to 100 nM.

As to `CC(=O)Nc1cc(Nc2ccnc(C(C)(F)F)n2)c(-c2ccn(C)n2)cn1` [Example 202, N-(4-((2-(1,1-difluoroethyl)pyrimidin-4-yl)amino)-5-(1-methyl-1H-pyrazol-3-yl)pyridin-2-yl)acetamide], the concentration for half-maximal inhibition (IC50) at JH2 domain of human Tyk2 and against Tyk2 was at most 10 nM each time.

For the molecule `CC(=O)Nc1cc(Nc2nccc(C(C)(F)F)n2)c(-c2ccn(C)n2)cn1` [Example 203, N-(4-((4-(1,1-difluoroethyl)pyrimidin-2-yl)amino)-5-(1-methyl-1H-pyrazol-3-yl)pyridin-2-yl)acetamide], the IC50 at JH2 domain of human Tyk2 and against Tyk2 was at most 10 nM throughout.

With `CCc1cc(Nc2cc(NC(C)=O)ncc2-c2ccn(C)n2)nc(C(C)(F)F)n1` [Example 204, N-(4-((2-(1,1-difluoroethyl)-6-ethylpyrimidin-4-yl)amino)-5-(1-methyl-1H-pyrazol-3-yl)pyridin-2-yl)acetamide], the IC50 on JH2 domain of human Tyk2 and against Tyk2 was at most 10 nM in each case.

Take `CC(=O)Nc1cc(Nc2cc(C3CC3)nc(C(C)(F)F)n2)c(-c2ccn(C)n2)cn1` [Example 206, N-(4-((6-cyclopropyl-2-(1,1-difluoroethyl)pyrimidin-4-yl)amino)-5-(1-methyl-1H-pyrazol-3-yl)pyridin-2-yl)acetamide]: the IC50 at JH2 domain of human Tyk2 and against Tyk2 was at most 10 nM in each case.

`CC(=O)Nc1cc(Nc2cccc(C3CCOC3)n2)c(-c2ccn(C)n2)cn1` (stereo not drawn) [Example 208, N-(5-(1-methyl-1H-pyrazol-3-yl)-4-((6-(tetrahydrofuran-3-yl)pyridin-2-yl)amino)pyridin-2-yl)acetamide]: the IC50 is at most 10 nM on JH2 domain of human Tyk2 and 10 to 100 nM on Tyk2.

On to `CO[C@H]1C[C@@H](Oc2cc(Nc3cc(NC(C)=O)ncc3-c3ccn(C)n3)nc(C(C)(F)F)c2)C1` [Example 211, N-(4-((6-(1,1-difluoroethyl)-4-((1s,3s)-3-methoxycyclobutoxy)pyridin-2-yl)amino)-5-(1-methyl-1H-pyrazol-3-yl)pyridin-2-yl)acetamide], for which the IC50 at JH2 domain of human Tyk2 and on Tyk2 was at most 10 nM throughout.

As to `[2H]C([2H])([2H])C(=O)Nc1cc(Nc2cc(C)nc(C(C)(F)F)n2)c(-c2ccc(OC)nn2)cn1` [Example 213, N-(4-((2-(1,1-difluoroethyl)-6-methylpyrimidin-4-yl)amino)-5-(6-methoxypyridazin-3-yl)pyridin-2-yl)acetamide-2,2,2-d3], the concentration for half-maximal inhibition (IC50) on JH2 domain of human Tyk2 and at Tyk2 was at most 10 nM in each case.

For the molecule `CC(=O)Nc1cc(Nc2cccc(C(C)(C)F)n2)c(-c2ncc(F)cn2)cn1` [Example 215, N-(4-((6-(2-fluoropropan-2-yl)pyridin-2-yl)amino)-5-(5-fluoropyrimidin-2-yl)pyridin-2-yl)acetamide], the half-maximal inhibitory concentration (IC50) at JH2 domain of human Tyk2 was at most 10 nM; against Tyk2, 10 to 100 nM.

As to `CC(=O)Nc1cc(Nc2ccnc(C(C)(C)F)c2)c(-c2ncc(F)cn2)cn1` [Example 216, N-(4-((2-(2-fluoropropan-2-yl)pyridin-4-yl)amino)-5-(5-fluoropyrimidin-2-yl)pyridin-2-yl)acetamide], the results for the concentration for half-maximal inhibition (IC50) on JH2 domain of human Tyk2 and against Tyk2 were 10 to 100 nM and 100 to 1000 nM, respectively.

The values above are taken from patent US20260028365A1 (BIOGEN MA INC., priority 2022, published 2026).
